According to US10821115B2, “Compounds that inhibit Mcl-1 protein” (priority 2017, dated 2020):
Like-named read-outs stand apart in the source and are kept apart here.

Key:
[1] = target: recombinant human Mcl-1 (residues 171-327) / Bim interaction (Homo sapiens (Human), UniProt Q07820); test: biochemical; type: binding; details: read-out: Mcl-1 HTRF IC50
[2] = system: human multiple myeloma cell line, OPM-2; test: Cell viability assay (OPM-2 10 FBS), CellTiter-Glo; type: cell-based
In short: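 3000 cells/well, RPMI 1640 + 10% FBS; serial compound dilutions, 16 h, 37 °C/5% CO2.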

[3] = 0.1 nM Mcl-1(171-327), 0.05 nM biotin-Bim (51-76)
[4] = Homo sapiens, OPM-2, 16 h, read-out: OPM-2 10% FBS IC50 IP, OPM-2 cells, 10% FBS, 16 h incubation
[5] = TR-FRET, Mcl-1(171-327) / biotin-Bim (51-76)
[6] = Homo sapiens, OPM-2, 16 h, read-out: OPM-2 10% FBS IC50 IP, OPM-2 cells, 10% FBS, 16 h, CellTiter-Glo
[7] = read-out: OPM-2 10% FBS IC50 IP, OPM-2 cells, 10% FBS, 16 h, CellTiter-Glo
[8] = read-out: OPM-2 10% FBS IC50 IP, OPM-2 cells, 10% FBS, 16 h incubation

Sequence of recombinant human Mcl-1 (residues 171-327) / Bim interaction (Q07820 171-327): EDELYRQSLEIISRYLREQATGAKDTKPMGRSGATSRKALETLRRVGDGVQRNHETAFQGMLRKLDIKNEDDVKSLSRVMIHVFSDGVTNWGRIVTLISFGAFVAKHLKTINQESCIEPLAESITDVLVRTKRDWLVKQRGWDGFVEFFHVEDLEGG

Question: What does the source list for `CO[C@@]1(CN2CCN(C3(C)COC3)CC2)/C=C/C[C@H](C)[C@@H](C)S(=O)(=O)NC(=O)c2ccc3c(c2)N(C[C@@H]2CC[C@H]21)C[C@@]1(CCCc2cc(Cl)ccc21)CO3` [Example 268, (1S,3′R,6′R,7′S,8′E,11′S,12′R)-6-chloro-7′-methoxy-11′,12′-dimethyl-7′-((4-(3-methyl-3-oxetanyl)-1-piperazinyl)methyl)-3,4-dihydro-2H,15′H-spiro[naphthalene-1,22′-[20]oxa[13]thia[1,14]diazatetracyclo [14.7.2.0~3,6~.0~19,24~]pentacosa[8,16,18,24]tetraen]-15′-one 13′,13′-dioxide]?
Answer: IC50 [1, 3]: 0.065 nM; IC50 [2, 4]: 72 nM

Question: With `CC(C)C[C@@]1(O)/C=C/C[C@H](C)[C@@H](C)S(=O)(=O)NC(=O)c2ccc3c(c2)N(C[C@@H]2CC[C@H]21)C[C@@]1(CCCc2cc(Cl)ccc21)CO3` [Example 100220, (1S,3′R,6′R,7′R,8′E,11′S,12′R)-6-chloro-7′-hydroxy-11′,12′-dimethyl-7′-(2-methylpropyl)-3,4-dihydro-2H,15′H-spiro[naphthalene-1,22′-[20]oxa[13]thia[1,14]diazatetracyclo [14.7.2.0~3,6~.0~19,24~]pentacosa[8,16,18,24]tetraen]-15′-one 13′,13′-dioxide] as the compound, how does the IC50 [1, 5] read?
Answer: Its IC50 is 7.42 nM.

Question: And the IC50 [2, 6]?
Answer: The IC50 was 6840 nM.

Question: What does the source list for `CO[C@@]1(CS(=O)(=O)C(C)C)/C=C/C[C@H](C)[C@@H](C)S(=O)(=O)NC(=O)c2ccc3c(c2)N(C[C@@H]2CC[C@H]21)C[C@@]1(CCCc2cc(Cl)ccc21)CO3` (stereo in doubt) [Example 100315, (1S,3′R,6′R,7′S,8′E,11′S,12′R)-6-chloro-7′-methoxy-11′,12′-dimethyl-7′-((2-propanylsulfonyl)methyl)-3,4-dihydro-2H,15′H-spiro[naphthalene-1,22′-[20]oxa[13]thia[1,14]diazatetracyclo [147.2.0~3,6~.0~19,24~]pentacosa[8,16,18,24]tetraen]-15′-one 13′,13′-dioxide]?
Answer: IC50 [1, 5]: 0.2 nM; IC50 [2, 7]: 153 nM

Question: How did the IC50 [1, 5] turn out when `C[C@@H]1[C@@H](C)C/C=C/[C@@](O)(C(F)(F)F)[C@@H]2CC[C@H]2CN2C[C@@]3(CCCc4cc(Cl)ccc43)COc3ccc(cc32)C(=O)NS1(=O)=O` [Example 100045, (1S,3′R,6′R,7′S,8′E,11′S,12′R)-6-chloro-7′-hydroxy-11′,12′-dimethyl-7′-(trifluoromethyl)-3,4-dihydro-2H,15′H-spiro[naphthalene-1,22′-[20]oxa[13]thia[1,14]diazatetracyclo [14.7.2.0~3,6~.0~19,24~]pentacosa[8,16,18,24]tetraen]-15′-one 13′,13′-dioxide] was run?
Answer: The IC50 was 0.308 nM.

Question: What about the IC50 [2, 6] of the same compound?
Answer: The IC50 was 342 nM.

Question: For `CC[C@@H]1CCCC[C@@](COC)(OC)[C@@H]2CC[C@H]2CN2C[C@@]3(CCCc4cc(Cl)ccc43)COc3ccc(cc32)C(=O)NS1(=O)=O` [Example 100038, (1S,3′R,6′R,7′R,12′R)-6-chloro-12′-ethyl-7′-methoxy-7′-(methoxymethyl)-3,4-dihydro-2H,15′H-spiro[naphthalene-1,22′-[20]oxa[13]thia[1,14]diazatetracyclo [14.7.2.0~3,6~.0~19,24~]pentacosa[16,18,24]trien]-15′-one 13′,13′-dioxide], which IC50 [1, 5] is on record?
Answer: Its IC50 is 1.66 nM.

Question: And the IC50 [2, 6]?
Answer: Its IC50 is 2560 nM.

Question: `C[C@@H]1[C@@H](C)C/C=C/[C@@](O)(C#CCCc2ccccn2)[C@@H]2CC[C@H]2CN2C[C@@]3(CCCc4cc(Cl)ccc43)COc3ccc(cc32)C(=O)NS1(=O)=O` [Example 100454, (1S,3′R,6′R,7′S,8′E,11′S,12′R)-6-chloro-7′-hydroxy-11′,12′-dimethyl-7′-(4-(2-pyridinyl)-1-butyn-1-yl)-3,4-dihydro-2H,15′H-spiro[naphthalene-1,22′-[20]oxa[13]thia[1,14]diazatetracyclo [14.7.2.0~3,6~.0~19,24~]pentacosa[8,16,18,24]tetraen]-15′-one 13′,13′-dioxide] was tested. Which IC50 [1, 5] did it give?
Answer: The IC50 was 0.652 nM.

Question: And the IC50 [2, 7]?
Answer: The IC50 was 802 nM.

Question: Which IC50 [1, 5] does the source give for `CO[C@@]1(C2SCCCS2)CCC[C@H](C)[C@@H](C)S(=O)(=O)NC(=O)c2ccc3c(c2)N(C[C@@H]2CC[C@H]21)C[C@@]1(CCCc2cc(Cl)ccc21)CO3` [Example 100254, (1S,3′R,6′R,7′S,11′S,12′R)-6-chloro-7′-(1,3-dithian-2-yl)-7′-methoxy-11′,12′-dimethyl-3,4-dihydro-2H,15′H-spiro[naphthalene-1,22′-[20]oxa[13]thia[1,14]diazatetracyclo [14.7.2.0~3,6~.0~19,24~]pentacosa[16,18,24]trien]-15′-one 13′,13′-dioxide] here?
Answer: The IC50 was 4.07 nM.

Question: And the IC50 [2, 7]?
Answer: Its IC50 is 2150 nM.

Question: How did the IC50 [1, 5] turn out when `CO[C@@]1(C#CCCO)/C=C/C[C@H](C)[C@@H](C)S(=O)(=O)NC(=O)c2ccc3c(c2)N(C[C@@H]2CC[C@H]21)C[C@@]1(CCCc2cc(Cl)ccc21)CO3` [Example 100427, (1S,3′R,6′R,7′S,8′E,11′S,12′R)-6-chloro-7′-(4-hydroxy-1-butyn-1-yl)-7′-methoxy-11′,12′-dimethyl-3,4-dihydro-2H,15′H-spiro[naphthalene-1,22′-[20]oxa[13]thia[1,14]diazatetracyclo [14.7.2.0~3,6~.0~19,24~]pentacosa[8,16,18,24]tetraen]-15′-one 13′,13′-dioxide] was run?
Answer: Its IC50 is 0.209 nM.

Question: What about the IC50 [2, 6] of the same compound?
Answer: The IC50 was 342 nM.

Question: `C[C@@H]1[C@@H](C)C/C=C/[C@@](O)([C@@H]2CCN(C)C2=O)[C@@H]2CC[C@H]2CN2C[C@@]3(CCCc4cc(Cl)ccc43)COc3ccc(cc32)C(=O)NS1(=O)=O` [Example 100109, (1S,3′R,6′R,7′S,8′E,11′S,12′R)-6-chloro-7′-hydroxy-11′,12′-dimethyl-7′-((3S)-1-methyl-2-oxo-3-pyrrolidinyl)-3,4-dihydro-2H,15′H-spiro[naphthalene-1,22′-[20]oxa[13]thia[1,14]diazatetracyclo [14.7.2.0~3,6~.0~19,24~]pentacosa[8,16,18,24]tetraen]-15′-one 13′,13′-dioxide] was tested. Which IC50 [1, 5] did it give?
Answer: Its IC50 is 0.486 nM.

Question: What about the IC50 [2, 7] of the same compound?
Answer: Its IC50 is 2140 nM.

Question: What does the source list for `C[C@@H]1[C@@H](C)C/C=C/[C@](O)(c2cccc(F)n2)[C@@H]2CC[C@H]2CN2C[C@@]3(CCCc4cc(Cl)ccc43)COc3ccc(cc32)C(=O)NS1(=O)=O` [Example 100331, (1S,3′R,6′R,7′R,8′E,11′S,12′R)-6-chloro-7′-(6-fluoro-2-pyridinyl)-7′-hydroxy-11′,12′-dimethyl-3,4-dihydro-2H,15′H-spiro[naphthalene-1,22′-[20]oxa[13]thia[1,14]diazatetracyclo [14.7.2.0~3,6~.0~19,24~]pentacosa[8,16,18,24]tetraen]-15′-one 13′,13′-dioxide]?
Answer: IC50 [1, 5]: 0.192 nM; IC50 [2, 6]: 8260 nM

Question: `CO[C@]1(c2nccs2)/C=C/C[C@H](C)[C@@H](C)S(=O)(=O)NC(=O)c2ccc3c(c2)N(C[C@@H]2CC[C@H]21)C[C@@]1(CCCc2cc(Cl)ccc21)CO3` (single isomer, unassigned) [Example 100522] was tested. Which IC50 [1, 5] did it give?
Answer: Its IC50 is 0.144 nM.

Question: And the IC50 [2, 6]?
Answer: Its IC50 is 538 nM.

Question: With `COCCN1[C@H](C)CN(C[C@]2(OC)/C=C/C[C@H](C)[C@@H](C)S(=O)(=O)NC(=O)c3ccc4c(c3)N(C[C@@H]3CC[C@H]32)C[C@@]2(CCCc3cc(Cl)ccc32)CO4)C[C@@H]1C` [Example 324, (1S,3′R,6′R,7′S,8′E,11′S,12′R)-6-chloro-7′-methoxy-7′-(((3R,5S)-4-(2-methoxyethyl)-3,5-dimethyl-1-piperazinyl)methyl)-11′,12′-dimethyl-3,4-dihydro-2H,15′H-spiro[naphthalene-1,22′-[20]oxa[13]thia[1,14]diazatetracyclo [14.7.2.0~3,6~.0~19,24~]pentacosa[8,16,18,24]tetraen]-15′-one 13′,13′-dioxide] as the compound, how does the IC50 [1, 3] read?
Answer: Its IC50 is 0.136 nM.

Question: And the IC50 [2, 4]?
Answer: Its IC50 is 57 nM.

Question: How did the IC50 [1, 5] turn out when `CC[C@@H]1CC/C=C/[C@](O)(C(F)(F)F)[C@@H]2CC[C@H]2CN2C[C@@]3(CCCc4cc(Cl)ccc43)COc3ccc(cc32)C(=O)NS1(=O)=O` [Example 100047, (1S,3′R,6′R,7′R,8′E,12′R)-6-chloro-12′-ethyl-7′-hydroxy-7′-(trifluoromethyl)-3,4-dihydro-2H,15′H-spiro[naphthalene-1,22′-[20]oxa[13]thia[1,14]diazatetracyclo [14.7.2.0~3,6~.0~19,24~]pentacosa[8,16,18,24]tetraen]-15′-one 13′,13′-dioxide] was run?
Answer: The IC50 was 5.15 nM.

Question: What about the IC50 [2, 7] of the same compound?
Answer: The IC50 was 2540 nM.

Question: For `C[C@@H]1[C@@H](C)CCC[C@]2(OC[C@@H](N(C)C)CO2)[C@@H]2CC[C@H]2CN2C[C@@]3(CCCc4cc(Cl)ccc43)COc3ccc(cc32)C(=O)NS1(=O)=O` [Example 100227], which IC50 [1, 5] is on record?
Answer: Its IC50 is 0.423 nM.

Question: What about the IC50 [2, 6] of the same compound?
Answer: Its IC50 is 191 nM.

Question: `CO[C@]1(CN2CCN3CCC[C@@H]3C2)/C=C/C[C@H](C)[C@@H](C)S(=O)(=O)NC(=O)c2ccc3c(c2)N(C[C@@H]2CC[C@H]21)C[C@@]1(CCCc2cc(Cl)ccc21)CO3` [Example 83] was tested. Which IC50 [1, 3] did it give?
Answer: The IC50 was 0.223 nM.

Question: What about the IC50 [2, 8] of the same compound?
Answer: Its IC50 is 245 nM.

Question: For “(1 S,3′R,6′R,7′R,8′E,11′S,12′R)-6-chloro-7′-methoxy-11′-methyl-12′-(2-(((2-methyl-2-propanyl)(diphenyl)silyl)oxy)ethyl)-7′-((9aR)-octahydro-2H-pyrido[1,2-a]pyrazin-2-ylmethyl)-3,4-dihydro-2H, 15′H-spiro[naphthalene-1,22′-[20]oxa[13]thia[1,14]diazatetracyclo[14.7.2.0-3,6˜.0˜19,24˜]pentacosa[8,16,18,24]tetraen]-15′-one 13′,13′-dioxide [Example 359]”, which IC50 [1, 3] is on record?
Answer: The IC50 was 2.08 nM.

Question: What about the IC50 [2, 8] of the same compound?
Answer: The IC50 was > 33300 nM.
